Measured values reported in ChEMBL document CHEMBL4831488, “Design, synthesis, docking, molecular dynamics and bioevaluation studies on novel N-methylpicolinamide and thienopyrimidine derivatives with inhibiting NF-κB and TAK1 activities: Cheminformatics tools RDKit applied in drug design” (Eur J Med Chem, 2021).
Activity calls are given as the source filed them. The rule behind the calls is not given here.

Columns and labels:
[1] = molecular target: T1, Nuclear factor NF-kappa-B complex (Homo sapiens) (UniProt Q00653+P19838+Q04206); assay: Inhibition of human NF-kB in human A549 cells assessed as suppression of TNF-alpha induced p-65 expression at 0.5 to 5 uM pretreated with compounds for 24 hrs followed by TNF-alpha stimulation for 10 mins by Western blot analysis; type: cell-based; conditions: dose 0.5-5 µM, time 1450.0 min
HCT-116 [2] = assay: Cell cycle arrest in human HCT-116 cells assessed as accumulation at G2/M phase at 1.8 uM measured after 24 hrs by PI staining based Flow cytometry method; type: functional
A549 [3] = assay: Induction of apoptosis in human A549 cells assessed as necrotic cells at 1.2 uM measured by annexinV-FITC/propidium iodide staining based flow cytometry analysis (reference value: 0.42%); type: functional
A549 [4] = assay: Induction of apoptosis in human A549 cells assessed as early apoptotic cells at 0.6 uM measured by annexinV-FITC/propidium iodide staining based flow cytometry analysis (reference value: 1.17%); type: functional
MAP3K7 [5] = assay: Inhibition of human TAK1 in human A549 cells assessed as suppression of TNF-alpha induced TAK1 expression at 0.5 to 5 uM pretreated with compounds for 24 hrs followed by TNF-alpha stimulation for 10 mins by Western blot analysis; conditions: dose 0.5-5 µM, time 1450.0 min
A549 [6] = assay: Cytotoxicity against human A549 cells assessed as inhibition of cell growth measured after 72 hrs by MTT assay; type: functional, cell-based; conditions: Homo sapiens, A549, 72 h; read-out: IC50
A549 [7] = assay: Cell cycle arrest in human A549 cells assessed as accumulation at S phase at 0.6 uM measured after 24 hrs by PI staining based Flow cytometry method (reference value: 34.24%); type: functional
[8] = molecular target: T1, Nuclear factor NF-kappa-B complex (Homo sapiens); assay: Inhibition of human NF-kB in human HCT-116 cells assessed as suppression of TNF-alpha induced TAK1 phosphorylation at 0.5 to 5 uM pretreated with compounds for 24 hrs followed by TNF-alpha stimulation for 10 mins by Western blot analysis; type: cell-based; conditions: dose 0.5-5 µM, time 1450.0 min
A549 [9] = assay: Induction of apoptosis in human A549 cells assessed as late apoptotic cells at 1.8 uM measured by annexinV-FITC/propidium iodide staining based flow cytometry analysis (reference value: 0.64%); type: functional
A549 [10] = assay: Cell cycle arrest in human A549 cells assessed as accumulation at G0/G1 phase at 1.8 uM measured after 24 hrs by PI staining based Flow cytometry method (reference value: 55.54%); type: functional
[11] = molecular target: T1, Nuclear factor NF-kappa-B complex (Homo sapiens); assay: Inhibition of human NF-kB in human A549 cells assessed as suppression of TNF-alpha induced IkBalpha expression at 0.5 to 5 uM pretreated with compounds for 24 hrs followed by TNF-alpha stimulation for 10 mins by Western blot analysis; type: cell-based; conditions: dose 0.5-5 µM, time 1450.0 min
A549 [12] = assay: Induction of apoptosis in human A549 cells assessed as early apoptotic cells at 1.8 uM measured by annexinV-FITC/propidium iodide staining based flow cytometry analysis (reference value: 1.17%); type: functional
A549 [13] = assay: Cell cycle arrest in human A549 cells assessed as accumulation at G0/G1 phase at 1.2 uM measured after 24 hrs by PI staining based Flow cytometry method (reference value: 55.54%); type: functional
MDA-MB-231 = assay: Cytotoxicity against human MDA-MB-231 cells assessed as inhibition of cell growth at 20 uM measured after 72 hrs by MTT assay relative to control; type: functional
[14] = molecular target: T1, Nuclear factor NF-kappa-B complex (Homo sapiens); assay: Inhibition of human NF-kB in human A549 cells assessed as suppression of TNF-alpha induced p-65 phosphorylation at 0.5 to 5 uM pretreated with compounds for 24 hrs followed by TNF-alpha stimulation for 10 mins by Western blot analysis; type: cell-based; conditions: dose 0.5-5 µM, time 1450.0 min
[15] = molecular target: T1, Nuclear factor NF-kappa-B complex (Homo sapiens); assay: Inhibition of human NF-kB in human HCT-116 cells assessed as suppression of TNF-alpha induced p-65 expression at 0.5 to 5 uM pretreated with compounds for 24 hrs followed by TNF-alpha stimulation for 10 mins by Western blot analysis; type: cell-based; conditions: dose 0.5-5 µM, time 1450.0 min
A549 [16] = assay: Induction of apoptosis in human A549 cells assessed as viable cells at 1.2 uM measured by annexinV-FITC/propidium iodide staining based flow cytometry analysis (reference value: 97.8%); type: functional; conditions: read-out: Activity
A549 [17] = assay: Induction of apoptosis in human A549 cells assessed as necrotic cells at 1.8 uM measured by annexinV-FITC/propidium iodide staining based flow cytometry analysis (reference value: 0.42%); type: functional
[18] = molecular target: T1, Nuclear factor NF-kappa-B complex (Homo sapiens); assay: Inhibition of human NF-kB in human HCT-116 cells assessed as suppression of TNF-alpha induced IkBalpha phosphorylation at 0.5 to 5 uM pretreated with compounds for 24 hrs followed by TNF-alpha stimulation for 10 mins by Western blot analysis; type: cell-based; conditions: dose 0.5-5 µM, time 1450.0 min
HCT-116 [19] = assay: Cytotoxicity against human HCT-116 cells assessed as inhibition of cell growth at 20 uM measured after 72 hrs by MTT assay relative to control; type: functional
A549 [20] = assay: Cell cycle arrest in human A549 cells assessed as accumulation at G2/M phase at 0.6 uM measured after 24 hrs by PI staining based Flow cytometry method (reference value: 10.2%); type: functional
A549 [21] = assay: Induction of apoptosis in human A549 cells assessed as late apoptotic cells at 0.6 uM measured by annexinV-FITC/propidium iodide staining based flow cytometry analysis (reference value: 0.64%); type: functional
A549 [22] = assay: Cell cycle arrest in human A549 cells assessed as accumulation at G0/G1 phase at 0.6 uM measured after 24 hrs by PI staining based Flow cytometry method (reference value: 55.54%); type: functional
A549 [23] = assay: Induction of apoptosis in human A549 cells assessed as viable cells at 1.8 uM measured by annexinV-FITC/propidium iodide staining based flow cytometry analysis (reference value: 97.8%); type: functional; conditions: read-out: Activity
A549 [24] = assay: Induction of apoptosis in human A549 cells assessed as early apoptotic cells at 1.2 uM measured by annexinV-FITC/propidium iodide staining based flow cytometry analysis (reference value: 1.17%); type: functional
A549 [25] = assay: Cell cycle arrest in human A549 cells assessed as accumulation at S phase at 1.8 uM measured after 24 hrs by PI staining based Flow cytometry method (reference value: 34.24%); type: functional
A549 [26] = assay: Cell cycle arrest in human A549 cells assessed as accumulation at G2/M phase at 1.2 uM measured after 24 hrs by PI staining based Flow cytometry method (reference value: 10.2%); type: functional
A549 [27] = assay: Cell cycle arrest in human A549 cells assessed as accumulation at G2/M phase at 1.8 uM measured after 24 hrs by PI staining based Flow cytometry method (reference value: 10.2%); type: functional
[28] = molecular target: T1, Nuclear factor NF-kappa-B complex (Homo sapiens); assay: Inhibition of human NF-kB in human HCT-116 cells assessed as suppression of TNF-alpha induced TAK1 expression at 0.5 to 5 uM pretreated with compounds for 24 hrs followed by TNF-alpha stimulation for 10 mins by Western blot analysis; type: cell-based; conditions: dose 0.5-5 µM, time 1450.0 min
[29] = molecular target: T1, Nuclear factor NF-kappa-B complex (Homo sapiens); assay: Inhibition of human NF-kB in human A549 cells assessed as suppression of TNF-alpha induced IkBalpha phosphorylation at 0.5 to 5 uM pretreated with compounds for 24 hrs followed by TNF-alpha stimulation for 10 mins by Western blot analysis; type: cell-based; conditions: dose 0.5-5 µM, time 1450.0 min
MAP3K7 [30] = assay: Inhibition of human TAK1 in human A549 cells assessed as suppression of TNF-alpha induced TAK1 phosphorylation at 0.5 to 5 uM pretreated with compounds for 24 hrs followed by TNF-alpha stimulation for 10 mins by Western blot analysis; conditions: dose 0.5-5 µM, time 1450.0 min

T1 sequence (P19838 whole entry, looked up): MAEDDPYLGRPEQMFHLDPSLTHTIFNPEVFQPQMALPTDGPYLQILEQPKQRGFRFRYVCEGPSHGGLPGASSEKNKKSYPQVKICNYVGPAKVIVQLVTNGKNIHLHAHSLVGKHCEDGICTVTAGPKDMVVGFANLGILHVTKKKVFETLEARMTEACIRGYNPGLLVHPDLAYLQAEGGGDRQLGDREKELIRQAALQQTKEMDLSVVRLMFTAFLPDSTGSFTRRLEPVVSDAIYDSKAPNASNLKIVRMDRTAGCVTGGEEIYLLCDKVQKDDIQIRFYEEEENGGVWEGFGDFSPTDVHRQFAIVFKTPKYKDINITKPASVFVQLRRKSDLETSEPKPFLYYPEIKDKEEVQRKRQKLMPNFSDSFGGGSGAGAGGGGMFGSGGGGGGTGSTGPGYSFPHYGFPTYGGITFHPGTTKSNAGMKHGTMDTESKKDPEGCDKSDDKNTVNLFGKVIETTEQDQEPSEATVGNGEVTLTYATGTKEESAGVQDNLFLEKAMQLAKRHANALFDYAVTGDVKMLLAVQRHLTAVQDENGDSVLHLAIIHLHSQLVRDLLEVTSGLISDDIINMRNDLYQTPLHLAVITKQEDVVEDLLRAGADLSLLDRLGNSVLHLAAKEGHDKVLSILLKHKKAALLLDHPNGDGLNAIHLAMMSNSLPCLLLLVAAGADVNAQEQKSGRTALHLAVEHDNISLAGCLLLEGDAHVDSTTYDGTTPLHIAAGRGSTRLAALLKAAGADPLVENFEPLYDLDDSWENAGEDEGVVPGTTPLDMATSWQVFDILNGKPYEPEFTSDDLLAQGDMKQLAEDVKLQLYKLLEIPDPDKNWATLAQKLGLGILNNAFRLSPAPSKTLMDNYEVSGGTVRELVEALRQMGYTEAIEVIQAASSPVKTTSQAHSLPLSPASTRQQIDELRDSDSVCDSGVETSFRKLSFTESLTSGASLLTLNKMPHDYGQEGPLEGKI
T1 sequence (Q00653 whole entry, looked up): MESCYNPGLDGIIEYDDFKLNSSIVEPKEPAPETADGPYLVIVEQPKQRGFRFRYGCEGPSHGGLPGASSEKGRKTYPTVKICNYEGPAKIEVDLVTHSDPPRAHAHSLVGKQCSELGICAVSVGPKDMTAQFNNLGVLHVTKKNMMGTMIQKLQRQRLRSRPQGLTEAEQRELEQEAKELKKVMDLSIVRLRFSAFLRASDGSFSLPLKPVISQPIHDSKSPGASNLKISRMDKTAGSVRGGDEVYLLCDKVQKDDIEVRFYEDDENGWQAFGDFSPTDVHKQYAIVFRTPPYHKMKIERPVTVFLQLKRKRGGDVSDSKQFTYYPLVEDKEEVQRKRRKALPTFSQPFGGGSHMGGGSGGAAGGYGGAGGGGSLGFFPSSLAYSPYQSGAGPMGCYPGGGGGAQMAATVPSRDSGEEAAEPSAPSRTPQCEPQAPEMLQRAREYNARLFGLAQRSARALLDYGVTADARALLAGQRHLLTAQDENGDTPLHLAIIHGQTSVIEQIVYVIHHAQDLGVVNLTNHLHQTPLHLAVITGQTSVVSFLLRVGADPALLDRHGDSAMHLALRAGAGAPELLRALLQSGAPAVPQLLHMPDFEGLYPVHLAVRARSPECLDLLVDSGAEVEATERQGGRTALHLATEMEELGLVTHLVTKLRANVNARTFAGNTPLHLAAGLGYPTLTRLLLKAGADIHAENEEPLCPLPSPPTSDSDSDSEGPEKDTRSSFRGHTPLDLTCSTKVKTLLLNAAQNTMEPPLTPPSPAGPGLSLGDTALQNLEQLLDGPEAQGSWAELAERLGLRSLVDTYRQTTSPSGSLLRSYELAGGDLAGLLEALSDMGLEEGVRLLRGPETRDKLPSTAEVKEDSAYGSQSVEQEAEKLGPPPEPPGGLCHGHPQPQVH
T1 sequence (Q04206 whole entry, looked up): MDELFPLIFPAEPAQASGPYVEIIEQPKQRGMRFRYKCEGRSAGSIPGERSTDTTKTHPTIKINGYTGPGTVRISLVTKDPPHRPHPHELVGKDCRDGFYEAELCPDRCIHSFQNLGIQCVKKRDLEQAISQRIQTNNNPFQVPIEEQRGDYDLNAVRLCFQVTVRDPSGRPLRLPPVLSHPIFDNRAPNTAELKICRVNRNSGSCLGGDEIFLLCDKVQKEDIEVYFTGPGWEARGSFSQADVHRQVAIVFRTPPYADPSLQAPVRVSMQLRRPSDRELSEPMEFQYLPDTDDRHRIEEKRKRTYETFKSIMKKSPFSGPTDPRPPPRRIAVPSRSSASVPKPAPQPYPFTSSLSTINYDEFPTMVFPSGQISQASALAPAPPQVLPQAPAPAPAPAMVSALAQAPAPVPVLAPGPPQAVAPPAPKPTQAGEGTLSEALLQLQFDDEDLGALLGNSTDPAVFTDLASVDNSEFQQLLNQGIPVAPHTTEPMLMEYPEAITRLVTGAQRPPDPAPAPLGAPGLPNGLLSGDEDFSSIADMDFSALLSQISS

For `CNC(=O)c1cc(Oc2ccc(Nc3nccc(N4CCCCC4)n3)cc2)ccn1`, the inhibition [1] was “Active”, the Activity (HCT-116 [2]) was 36.72% and the Activity (A549 [3]) was 0.74%. For the same molecule, the Activity (A549 [4]) was 8.16%, the inhibition (MAP3K7 [5]) was “Active” and the IC50 (A549 [6]) was 890 nM. For the same molecule, the Activity (A549 [7]) was 23.56%, the inhibition [8] was “Active” and the Activity (A549 [9]) was 9.54%. The Activity (A549 [10]) was 52.78%, the inhibition [11] was “Active” and the Activity (A549 [12]) was 25.4%. For the same molecule, the Activity (A549 [13]) was 57.49%, the inhibition at 20 µM (MDA-MB-231) was 52.3% and the inhibition [14] was “Active”. For the same molecule, the inhibition [15] was “Active”, the viability at 1.2 µM (A549 [16]) was 80.6% and the Activity (A549 [17]) was 0.71%. For the same molecule, the inhibition [18] was “Active”, the inhibition at 20 µM (HCT-116 [19]) was 69.8% and the Activity (A549 [20]) was 15.91%. For the same molecule, the Activity (A549 [21]) was 3.46%, the Activity (A549 [22]) was 60.53% and the viability at 1.8 µM (A549 [23]) was 64.4%. The Activity (A549 [24]) was 12.9%, the Activity (A549 [25]) was 16.65% and the Activity (A549 [26]) was 23.68%. For the same molecule, the Activity (A549 [27]) was 30.57%, the inhibition [28] was “Active” and the inhibition [29] was “Active”. The inhibition (MAP3K7 [30]) was “Active”.
